Data: paper PMC3933419, “Synthesis and Properties of a Selective Inhibitor of Homeodomain–Interacting Protein Kinase 2 (HIPK2)” (PLoS ONE, 2014)

How the values were obtained:
Test in all cases: Kinase panel selectivity profiling
Assay type in all cases: biochemical
RSK2 = RSK2 (Homo sapiens, UniProt P51812); settings: TBID 1 μM, 125 kinase panel, read-out: % activity of the enzyme
From the text: (§1) The source of HIPK2 and of all of the other protein kinases used for specificity assays is as described elsewhere.
(§2) Conditions for the activity assays of all other protein kinases tested in selectivity experiments are as described or referenced in [9].

IRAK4 = IRAK4 (Homo sapiens, UniProt Q9NWZ3); settings: TBID 1 μM, 125 kinase panel, read-out: % activity of the enzyme
From the text: as §1, §2

ASK1 = ASK1 (Homo sapiens, UniProt Q99683); settings: TBID 1 μM, 125 kinase panel, read-out: % activity of the enzyme
From the text: as §1, §2

JAK2 = JAK2 (Homo sapiens, UniProt O60674); settings: TBID 1 μM, 125 kinase panel, read-out: % activity of the enzyme
From the text: as §1, §2

Lck = Lck (Homo sapiens, UniProt P06239); settings: TBID 1 μM, 125 kinase panel, read-out: % activity of the enzyme
From the text: as §1, §2

HIPK3 = HIPK3 (Homo sapiens, UniProt Q9H422); settings: TBID 1 μM, 125 kinase panel, read-out: % activity of the enzyme
From the text: as §1, §2

ABL = ABL (Homo sapiens, UniProt P00519); settings: TBID 1 μM, 125 kinase panel, read-out: % activity of the enzyme
From the text: as §1, §2

DYRK1A = DYRK1A (Homo sapiens, UniProt Q13627)
From the text: as §1, §2

MSK1 = MSK1 (Homo sapiens, UniProt O75582); settings: TBID 1 μM, 125 kinase panel, read-out: % activity of the enzyme
From the text: as §1, §2

EF2K = EF2K (Homo sapiens, UniProt O00418); settings: TBID 1 μM, 125 kinase panel, read-out: % activity of the enzyme
From the text: as §1, §2

PAK5 = PAK5 (Homo sapiens, UniProt Q9P286); settings: TBID 1 μM, 125 kinase panel, read-out: % activity of the enzyme
From the text: as §1, §2

CSK = CSK (Homo sapiens, UniProt P41240); settings: TBID 1 μM, 125 kinase panel, read-out: % activity of the enzyme
From the text: as §1, §2

CLK2 = CLK2 (Homo sapiens, UniProt P49760); settings: TBID 1 μM, 125 kinase panel, read-out: % activity of the enzyme
From the text: as §1, §2

EIF2AK3 = EIF2AK3 (Homo sapiens, UniProt Q9NZJ5); settings: TBID 1 μM, 125 kinase panel, read-out: % activity of the enzyme
From the text: as §1, §2

p38d MAPK = p38d MAPK (Homo sapiens, UniProt O15264); settings: TBID 1 μM, 125 kinase panel, read-out: % activity of the enzyme
From the text: as §1, §2

PRK2 = PRK2 (Homo sapiens, UniProt Q16513); settings: TBID 1 μM, 125 kinase panel, read-out: % activity of the enzyme
From the text: as §1, §2

TrkA = TrkA (Homo sapiens, UniProt P04629); settings: TBID 1 μM, 125 kinase panel, read-out: % activity of the enzyme
From the text: as §1, §2

ERK8 = ERK8 (Homo sapiens, UniProt Q8TD08); settings: TBID 1 μM, 125 kinase panel, read-out: % activity of the enzyme
From the text: as §1, §2

MAPKAP-K2 = MAPKAP-K2 (Homo sapiens, UniProt P49137); settings: TBID 1 μM, 125 kinase panel, read-out: % activity of the enzyme
From the text: as §1, §2

MLK3 = MLK3 (Homo sapiens, UniProt Q16584); settings: TBID 1 μM, 125 kinase panel, read-out: % activity of the enzyme
From the text: as §1, §2

TIE2 = TIE2 (Homo sapiens, UniProt Q02763); settings: TBID 1 μM, 125 kinase panel, read-out: % activity of the enzyme
From the text: as §1, §2

BRSK1 = BRSK1 (Homo sapiens, UniProt Q8TDC3); settings: TBID 1 μM, 125 kinase panel, read-out: % activity of the enzyme
From the text: as §1, §2

PKBa = PKBa (Homo sapiens, UniProt P31749); settings: TBID 1 μM, 125 kinase panel, read-out: % activity of the enzyme
From the text: as §1, §2

STK33 = STK33 (Homo sapiens, UniProt Q9BYT3); settings: TBID 1 μM, 125 kinase panel, read-out: % activity of the enzyme
From the text: as §1, §2

JNK2 = JNK2 (Homo sapiens, UniProt P45984); settings: TBID 1 μM, 125 kinase panel, read-out: % activity of the enzyme
From the text: as §1, §2

DYRK2 = DYRK2 (Homo sapiens, UniProt Q92630); settings: TBID 1 μM, 125 kinase panel, read-out: % activity of the enzyme
From the text: as §1, §2

PAK4 = PAK4 (Homo sapiens, UniProt O96013); settings: TBID 1 μM, 125 kinase panel, read-out: % activity of the enzyme
From the text: as §1, §2

CK1 = CK1 (Homo sapiens, UniProt P48730); settings: TBID 1 μM, 125 kinase panel, read-out: % activity of the enzyme
From the text: as §1, §2

TAK1 = TAK1 (Homo sapiens, UniProt O43318); settings: TBID 1 μM, 125 kinase panel, read-out: % activity of the enzyme
From the text: as §1, §2

PLK1 = PLK1 (Homo sapiens, UniProt P53350); settings: TBID 1 μM, 125 kinase panel, read-out: % activity of the enzyme
From the text: as §1, §2

TTK = TTK (Homo sapiens, UniProt P33981); settings: TBID 1 μM, 125 kinase panel, read-out: % activity of the enzyme
From the text: as §1, §2

LKB1 = LKB1 (Homo sapiens, UniProt Q15831); settings: TBID 1 μM, 125 kinase panel, read-out: % activity of the enzyme
From the text: as §1, §2

FGF-R1 = FGF-R1 (Homo sapiens, UniProt P11362); settings: TBID 1 μM, 125 kinase panel, read-out: % activity of the enzyme
From the text: as §1, §2

PDK1 = PDK1 (Homo sapiens, UniProt O15530); settings: TBID 1 μM, 125 kinase panel, read-out: % activity of the enzyme
From the text: as §1, §2

TESK1 = TESK1 (Homo sapiens, UniProt Q15569); settings: TBID 1 μM, 125 kinase panel, read-out: % activity of the enzyme
From the text: as §1, §2

MNK2 = MNK2 (Homo sapiens, UniProt Q9HBH9); settings: TBID 1 μM, 125 kinase panel, read-out: % activity of the enzyme
From the text: as §1, §2

OSR1 = OSR1 (Homo sapiens, UniProt O95747); settings: TBID 1 μM, 125 kinase panel, read-out: % activity of the enzyme
From the text: as §1, §2

PKA = PKA (Homo sapiens, UniProt P17612); settings: TBID 1 μM, 125 kinase panel, read-out: % activity of the enzyme
From the text: as §1, §2

HIPK1 = HIPK1 (Homo sapiens, UniProt Q86Z02); settings: TBID 1 μM, 125 kinase panel, read-out: % activity of the enzyme
From the text: as §1, §2

EPH-A2 = EPH-A2 (Homo sapiens, UniProt P29317); settings: TBID 1 μM, 125 kinase panel, read-out: % activity of the enzyme
From the text: as §1, §2

Aurora B = Aurora B (Homo sapiens, UniProt Q96GD4); settings: TBID 1 μM, 125 kinase panel, read-out: % activity of the enzyme
From the text: as §1, §2

MARK1 = MARK1 (Homo sapiens, UniProt Q9P0L2); settings: TBID 1 μM, 125 kinase panel, read-out: % activity of the enzyme
From the text: as §1, §2

Sequence of EIF2AK3 (Q9NZJ5 30-1116): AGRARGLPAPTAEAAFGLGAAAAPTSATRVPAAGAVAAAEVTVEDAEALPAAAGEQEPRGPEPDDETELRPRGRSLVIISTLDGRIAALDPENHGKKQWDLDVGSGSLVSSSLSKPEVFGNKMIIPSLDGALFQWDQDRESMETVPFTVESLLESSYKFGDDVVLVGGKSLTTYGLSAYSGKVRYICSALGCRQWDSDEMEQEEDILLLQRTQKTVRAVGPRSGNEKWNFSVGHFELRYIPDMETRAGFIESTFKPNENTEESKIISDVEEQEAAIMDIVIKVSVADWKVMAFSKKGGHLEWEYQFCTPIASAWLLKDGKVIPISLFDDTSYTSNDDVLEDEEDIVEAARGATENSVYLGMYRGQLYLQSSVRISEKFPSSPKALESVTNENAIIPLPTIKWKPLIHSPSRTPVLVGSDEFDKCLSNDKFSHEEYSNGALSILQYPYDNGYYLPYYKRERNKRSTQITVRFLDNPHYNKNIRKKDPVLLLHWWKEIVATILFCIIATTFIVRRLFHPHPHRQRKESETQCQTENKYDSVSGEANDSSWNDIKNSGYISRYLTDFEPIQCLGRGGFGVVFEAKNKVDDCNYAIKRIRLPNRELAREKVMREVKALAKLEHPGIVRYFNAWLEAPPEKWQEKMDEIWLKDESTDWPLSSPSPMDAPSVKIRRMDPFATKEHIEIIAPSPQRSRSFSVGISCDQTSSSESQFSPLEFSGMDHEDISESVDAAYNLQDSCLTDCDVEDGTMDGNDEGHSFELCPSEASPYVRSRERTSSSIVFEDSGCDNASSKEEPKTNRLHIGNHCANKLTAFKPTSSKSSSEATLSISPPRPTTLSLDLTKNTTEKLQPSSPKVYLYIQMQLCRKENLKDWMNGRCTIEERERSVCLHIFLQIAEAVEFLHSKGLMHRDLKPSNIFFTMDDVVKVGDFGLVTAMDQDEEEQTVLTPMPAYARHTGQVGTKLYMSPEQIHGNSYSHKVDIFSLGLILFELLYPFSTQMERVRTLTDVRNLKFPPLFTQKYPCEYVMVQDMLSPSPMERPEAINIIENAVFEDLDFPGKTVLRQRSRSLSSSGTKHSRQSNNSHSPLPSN
Sequence of PDK1 (O15530 whole entry): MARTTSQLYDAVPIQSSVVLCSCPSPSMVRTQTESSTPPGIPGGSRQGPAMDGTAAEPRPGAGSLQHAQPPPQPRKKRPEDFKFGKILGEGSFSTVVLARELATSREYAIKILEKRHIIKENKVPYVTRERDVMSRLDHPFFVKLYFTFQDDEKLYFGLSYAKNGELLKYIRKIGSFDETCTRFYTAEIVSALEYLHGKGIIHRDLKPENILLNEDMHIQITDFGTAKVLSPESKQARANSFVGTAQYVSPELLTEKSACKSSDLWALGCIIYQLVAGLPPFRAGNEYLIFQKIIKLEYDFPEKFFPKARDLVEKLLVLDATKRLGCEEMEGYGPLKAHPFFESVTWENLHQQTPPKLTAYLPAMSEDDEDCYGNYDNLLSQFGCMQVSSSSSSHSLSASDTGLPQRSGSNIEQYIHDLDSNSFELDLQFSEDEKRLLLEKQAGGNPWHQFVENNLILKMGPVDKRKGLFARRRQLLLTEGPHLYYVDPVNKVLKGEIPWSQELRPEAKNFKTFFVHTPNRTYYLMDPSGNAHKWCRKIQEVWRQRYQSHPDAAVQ
Sequence of HIPK1 (Q86Z02 whole entry): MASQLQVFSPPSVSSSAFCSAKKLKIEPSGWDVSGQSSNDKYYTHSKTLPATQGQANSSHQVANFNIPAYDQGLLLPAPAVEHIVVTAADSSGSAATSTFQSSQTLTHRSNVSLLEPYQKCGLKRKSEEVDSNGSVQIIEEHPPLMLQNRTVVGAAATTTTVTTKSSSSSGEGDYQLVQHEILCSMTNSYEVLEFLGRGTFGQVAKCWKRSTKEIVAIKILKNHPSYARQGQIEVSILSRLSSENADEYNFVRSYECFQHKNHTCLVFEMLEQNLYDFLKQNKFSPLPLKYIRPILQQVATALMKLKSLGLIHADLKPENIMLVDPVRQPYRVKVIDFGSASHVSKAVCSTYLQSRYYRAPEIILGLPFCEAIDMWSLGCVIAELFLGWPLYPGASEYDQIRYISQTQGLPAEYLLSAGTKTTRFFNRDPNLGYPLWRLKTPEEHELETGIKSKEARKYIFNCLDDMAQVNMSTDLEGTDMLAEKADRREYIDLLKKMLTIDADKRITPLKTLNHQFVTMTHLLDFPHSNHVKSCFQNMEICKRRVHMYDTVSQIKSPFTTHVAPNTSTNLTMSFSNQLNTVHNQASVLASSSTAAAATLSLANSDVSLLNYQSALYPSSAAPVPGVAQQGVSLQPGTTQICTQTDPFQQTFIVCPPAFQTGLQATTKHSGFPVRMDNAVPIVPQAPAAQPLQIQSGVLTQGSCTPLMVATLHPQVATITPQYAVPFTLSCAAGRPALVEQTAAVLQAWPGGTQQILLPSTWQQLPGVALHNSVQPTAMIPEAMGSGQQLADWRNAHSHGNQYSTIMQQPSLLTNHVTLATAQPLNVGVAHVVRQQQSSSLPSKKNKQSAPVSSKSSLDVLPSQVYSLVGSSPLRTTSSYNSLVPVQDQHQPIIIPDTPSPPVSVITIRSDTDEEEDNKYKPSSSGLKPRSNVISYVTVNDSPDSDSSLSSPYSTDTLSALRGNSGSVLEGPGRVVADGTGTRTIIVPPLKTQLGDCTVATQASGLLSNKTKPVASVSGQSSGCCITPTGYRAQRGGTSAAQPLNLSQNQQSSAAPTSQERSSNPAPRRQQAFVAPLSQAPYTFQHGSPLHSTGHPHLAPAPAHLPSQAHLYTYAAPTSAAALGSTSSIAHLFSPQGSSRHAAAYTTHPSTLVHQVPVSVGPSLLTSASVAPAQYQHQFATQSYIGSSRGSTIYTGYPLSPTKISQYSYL
Sequence of MSK1 (O75582 whole entry): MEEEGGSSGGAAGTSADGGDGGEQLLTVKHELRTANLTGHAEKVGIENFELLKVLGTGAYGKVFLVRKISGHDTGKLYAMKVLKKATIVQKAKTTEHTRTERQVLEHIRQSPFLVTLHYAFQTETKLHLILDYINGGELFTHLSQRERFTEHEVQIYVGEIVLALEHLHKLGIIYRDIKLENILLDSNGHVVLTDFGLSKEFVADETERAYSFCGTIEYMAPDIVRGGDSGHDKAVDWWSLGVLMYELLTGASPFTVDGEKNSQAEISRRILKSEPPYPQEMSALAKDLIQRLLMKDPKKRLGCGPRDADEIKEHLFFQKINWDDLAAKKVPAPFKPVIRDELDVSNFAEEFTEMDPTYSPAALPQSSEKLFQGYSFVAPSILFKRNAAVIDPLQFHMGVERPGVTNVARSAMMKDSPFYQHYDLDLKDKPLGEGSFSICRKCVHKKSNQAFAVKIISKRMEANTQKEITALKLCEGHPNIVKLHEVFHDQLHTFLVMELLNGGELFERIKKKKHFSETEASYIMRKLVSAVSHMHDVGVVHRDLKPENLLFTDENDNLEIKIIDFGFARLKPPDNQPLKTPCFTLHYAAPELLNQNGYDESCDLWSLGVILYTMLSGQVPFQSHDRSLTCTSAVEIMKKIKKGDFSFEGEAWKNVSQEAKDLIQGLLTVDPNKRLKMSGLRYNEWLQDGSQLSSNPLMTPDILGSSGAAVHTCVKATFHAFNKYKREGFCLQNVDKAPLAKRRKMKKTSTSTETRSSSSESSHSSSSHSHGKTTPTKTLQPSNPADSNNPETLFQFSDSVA
Sequence of EF2K (O00418 whole entry): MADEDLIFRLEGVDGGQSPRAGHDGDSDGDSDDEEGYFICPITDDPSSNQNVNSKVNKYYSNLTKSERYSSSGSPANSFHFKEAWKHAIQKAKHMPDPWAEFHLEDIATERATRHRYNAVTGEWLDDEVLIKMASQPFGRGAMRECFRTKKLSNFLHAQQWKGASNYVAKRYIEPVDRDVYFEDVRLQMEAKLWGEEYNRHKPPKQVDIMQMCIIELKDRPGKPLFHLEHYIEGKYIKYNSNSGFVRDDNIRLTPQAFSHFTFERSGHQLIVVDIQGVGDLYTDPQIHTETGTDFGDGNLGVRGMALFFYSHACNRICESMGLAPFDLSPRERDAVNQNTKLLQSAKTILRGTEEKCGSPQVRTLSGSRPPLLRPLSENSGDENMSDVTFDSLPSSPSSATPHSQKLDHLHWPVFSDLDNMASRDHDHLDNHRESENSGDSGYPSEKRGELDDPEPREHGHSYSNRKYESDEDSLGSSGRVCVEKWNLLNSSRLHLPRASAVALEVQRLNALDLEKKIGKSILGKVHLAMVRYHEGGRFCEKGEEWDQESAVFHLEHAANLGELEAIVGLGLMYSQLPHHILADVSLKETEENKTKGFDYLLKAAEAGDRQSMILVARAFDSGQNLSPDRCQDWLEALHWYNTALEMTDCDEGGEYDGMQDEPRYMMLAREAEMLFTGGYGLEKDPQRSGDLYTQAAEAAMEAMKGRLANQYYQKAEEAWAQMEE
Sequence of PAK4 (O96013 whole entry): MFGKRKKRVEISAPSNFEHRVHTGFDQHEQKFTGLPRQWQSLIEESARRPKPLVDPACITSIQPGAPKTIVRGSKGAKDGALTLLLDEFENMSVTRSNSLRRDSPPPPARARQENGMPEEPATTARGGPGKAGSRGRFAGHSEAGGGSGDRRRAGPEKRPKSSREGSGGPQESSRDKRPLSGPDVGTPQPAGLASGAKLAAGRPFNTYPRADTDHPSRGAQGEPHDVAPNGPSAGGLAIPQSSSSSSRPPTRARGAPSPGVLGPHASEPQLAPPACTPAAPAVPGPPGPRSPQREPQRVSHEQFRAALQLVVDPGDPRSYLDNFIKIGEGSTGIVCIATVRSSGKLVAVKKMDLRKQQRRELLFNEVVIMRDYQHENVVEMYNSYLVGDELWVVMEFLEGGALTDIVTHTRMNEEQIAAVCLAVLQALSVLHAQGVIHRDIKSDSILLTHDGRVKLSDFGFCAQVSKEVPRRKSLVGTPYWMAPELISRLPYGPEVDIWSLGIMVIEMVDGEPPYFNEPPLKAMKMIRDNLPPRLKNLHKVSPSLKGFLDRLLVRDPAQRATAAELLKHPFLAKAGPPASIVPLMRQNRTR

`O=C1c2c(Br)c(Br)c(Br)c(Br)c2C(=O)N1c1ncc[nH]1` [TBID, 4,5,6,7-Tetrabromo-2-(1H-imidazol-2-yl)isoindoline-1,3-dione] showed an activity at 1 µM (RSK2) of 101%, an activity at 1 µM (IRAK4) of 101% and an activity at 1 µM (ASK1) of 126%. For the same compound, the activity at 1 µM (JAK2) was 114%, the activity at 1 µM (Lck) was 109% and the activity at 1 µM (HIPK3) was 53%. It also gave an activity at 1 µM (ABL) of 99%, a remaining activity at 10 µM (DYRK1A; 10 µM TBID, panel of 76 protein kinases, read-out: residual activity) of 72% and an activity at 1 µM (DYRK1A; TBID 1 μM, 125 kinase panel, read-out: % activity of the enzyme) of 104%. It also gave an activity at 1 µM (MSK1) of 89%, an activity at 1 µM (EF2K) of 111% and an activity at 1 µM (PAK5) of 105%. The activity at 1 µM (CSK) was 89%, the activity at 1 µM (CLK2) was 101% and the activity at 1 µM (EIF2AK3) was 107%. The activity at 1 µM (p38d MAPK) was 106%, the activity at 1 µM (PRK2) was 96% and the activity at 1 µM (TrkA) was 100%. It also gave an activity at 1 µM (ERK8) of 95%, an activity at 1 µM (MAPKAP-K2) of 119% and an activity at 1 µM (MLK3) of 97%. It also gave an activity at 1 µM (TIE2) of 115%, an activity at 1 µM (BRSK1) of 110% and an activity at 1 µM (PKBa) of 104%. For the same compound, the activity at 1 µM (STK33) was 111%, the activity at 1 µM (JNK2) was 110% and the activity at 1 µM (DYRK2) was 94%. For the same compound, the activity at 1 µM (PAK4) was 99%, the activity at 1 µM (CK1) was 105% and the activity at 1 µM (TAK1) was 78%. For the same compound, the activity at 1 µM (PLK1) was 83%, the activity at 1 µM (TTK) was 92% and the activity at 1 µM (LKB1) was 102%. The activity at 1 µM (FGF-R1) was 104%, the activity at 1 µM (PDK1) was 97% and the activity at 1 µM (TESK1) was 103%. The activity at 1 µM (MNK2) was 113%, the activity at 1 µM (OSR1) was 103% and the activity at 1 µM (PKA) was 104%. The activity at 1 µM (HIPK1) was 39%, the activity at 1 µM (EPH-A2) was 89% and the activity at 1 µM (Aurora B) was 106%. The activity at 1 µM (MARK1) was 102%.
